Assay results published in patent US8871753B2, “Macrocyclic compounds and their use as kinase inhibitors” (Incyte Corporation, priority 2008, dated 2014).
Structures can show the parent of a compound that is named as a salt. Where two headings read alike, the source gives them in different places.

Legend:
Assay type in all cases: biochemical
[1] = molecular target: T1, human JAK3 (a.a. 781-1124) (Homo sapiens, UniProt P52333); test: In vitro JAK kinase assay (HTRF, phosphorylation of a biotinylated peptide), JAK3
T1 construct: JAK3 (a.a. 781-1124); His tag (N); made in house; host or cells: insect cells (baculovirus)
Outline: (§1)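 Kinase reactions ran at room temperature for 1 h with ATP matched per isoform (JAK1 90 μM, JAK2 30 μM, JAK3 3 μM). After an EDTA stop, the phosphorylated biotin-peptide was read by HTRF using Eu-Py20 and SA-APC after 40 min binding.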

TYK2 = TYK2 (Homo sapiens, UniProt P29597); test: TYK2 kinase inhibition (Table A1)
[2] = molecular target: T2, human JAK2 (a.a. 828-1132) (Homo sapiens, UniProt O60674); test: In vitro JAK kinase assay (HTRF, phosphorylation of a biotinylated peptide), JAK2
T2 construct: JAK2 (a.a. 828-1132); His tag (N); made in house; host or cells: insect cells (baculovirus)
Outline: as §1

[3] = molecular target: T3, human JAK1 (a.a. 837-1142) (Homo sapiens, UniProt P23458); test: In vitro JAK kinase assay (HTRF, phosphorylation of a biotinylated peptide), JAK1; details: read-out: JAK1 IC50
T3 construct: human JAK1 (a.a. 837-1142); His tag (N); made in house; host or cells: insect cells (baculovirus)
Outline: as §1

[4] = molecular target: T4, Recombinant Human Anaplastic Lymphoma Kinase (Homo sapiens, UniProt Q9UM73); test: ALK HTRF kinase assay
T4 construct: purchased Invitrogen, Carlsbad, Calif
Outline: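 Compounds were incubated with recombinant human ALK and a biotin-tagged peptide substrate. Product was captured with streptavidin-APC and probed with a europium anti-phosphotyrosine antibody, and plates were read for time-resolved fluorescence. Dose-response data were fitted to derive IC50.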

[5] = Table B1, cells without percent sign
[6] = method AA1 (3 μM ATP) or AA2 (1000 μM ATP), not stated per value
[7] = method AA1 (30 μM ATP) or AA2 (1000 μM ATP), not stated per value
[8] = method AA1 (90 μM ATP) or AA2 (1000 μM ATP), not stated per value
[9] = compound at 500 nM or 1 mM, 90 μM ATP
[10] = compound at a concentration of 500 nM or 1 mM (not specified), cells shown as percentage
[11] = percentage inhibition of the example compound at a concentration of 500 nM or 1 mM (not specified which)

T4 sequence (Q9UM73 19-1620): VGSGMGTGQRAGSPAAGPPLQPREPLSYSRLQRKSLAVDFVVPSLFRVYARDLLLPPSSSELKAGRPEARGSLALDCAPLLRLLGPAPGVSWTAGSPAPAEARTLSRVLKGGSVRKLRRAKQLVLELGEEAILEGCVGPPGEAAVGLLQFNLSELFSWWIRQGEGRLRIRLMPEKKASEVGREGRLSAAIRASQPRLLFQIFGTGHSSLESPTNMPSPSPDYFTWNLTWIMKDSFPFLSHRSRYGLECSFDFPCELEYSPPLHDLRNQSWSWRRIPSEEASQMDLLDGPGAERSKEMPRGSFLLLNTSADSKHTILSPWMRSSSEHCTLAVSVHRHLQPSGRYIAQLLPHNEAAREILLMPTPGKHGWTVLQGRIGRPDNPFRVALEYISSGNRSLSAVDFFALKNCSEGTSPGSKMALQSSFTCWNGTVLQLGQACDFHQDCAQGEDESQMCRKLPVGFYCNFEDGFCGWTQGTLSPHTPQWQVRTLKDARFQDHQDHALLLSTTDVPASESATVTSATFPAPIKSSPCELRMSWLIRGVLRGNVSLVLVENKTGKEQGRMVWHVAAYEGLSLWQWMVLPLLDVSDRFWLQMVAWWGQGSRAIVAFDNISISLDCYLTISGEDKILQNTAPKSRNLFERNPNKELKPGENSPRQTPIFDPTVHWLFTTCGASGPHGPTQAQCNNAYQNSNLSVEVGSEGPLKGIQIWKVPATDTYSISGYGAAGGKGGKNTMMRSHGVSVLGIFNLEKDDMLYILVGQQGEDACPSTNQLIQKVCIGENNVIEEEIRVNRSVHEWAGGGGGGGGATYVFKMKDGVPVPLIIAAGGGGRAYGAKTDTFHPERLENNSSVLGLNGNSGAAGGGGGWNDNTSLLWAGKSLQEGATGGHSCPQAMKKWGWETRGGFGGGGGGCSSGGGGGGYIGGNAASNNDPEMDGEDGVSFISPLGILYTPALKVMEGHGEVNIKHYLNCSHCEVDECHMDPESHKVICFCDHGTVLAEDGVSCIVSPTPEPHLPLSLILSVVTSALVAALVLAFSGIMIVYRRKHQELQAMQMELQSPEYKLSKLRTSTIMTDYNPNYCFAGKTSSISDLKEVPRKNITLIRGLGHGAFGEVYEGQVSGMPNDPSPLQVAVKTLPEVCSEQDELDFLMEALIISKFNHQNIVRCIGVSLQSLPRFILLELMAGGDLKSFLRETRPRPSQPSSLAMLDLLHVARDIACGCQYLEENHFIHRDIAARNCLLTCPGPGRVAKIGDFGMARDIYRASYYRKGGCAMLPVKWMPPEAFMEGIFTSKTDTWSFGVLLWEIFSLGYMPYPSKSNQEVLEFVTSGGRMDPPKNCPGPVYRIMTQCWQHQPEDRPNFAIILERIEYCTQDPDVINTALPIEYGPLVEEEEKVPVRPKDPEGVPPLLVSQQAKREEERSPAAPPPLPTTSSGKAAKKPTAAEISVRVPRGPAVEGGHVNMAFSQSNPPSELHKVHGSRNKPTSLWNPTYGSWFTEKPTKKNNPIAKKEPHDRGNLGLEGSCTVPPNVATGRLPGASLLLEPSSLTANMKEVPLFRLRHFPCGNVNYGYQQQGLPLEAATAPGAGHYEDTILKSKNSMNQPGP
T3 sequence (P23458 849-1154): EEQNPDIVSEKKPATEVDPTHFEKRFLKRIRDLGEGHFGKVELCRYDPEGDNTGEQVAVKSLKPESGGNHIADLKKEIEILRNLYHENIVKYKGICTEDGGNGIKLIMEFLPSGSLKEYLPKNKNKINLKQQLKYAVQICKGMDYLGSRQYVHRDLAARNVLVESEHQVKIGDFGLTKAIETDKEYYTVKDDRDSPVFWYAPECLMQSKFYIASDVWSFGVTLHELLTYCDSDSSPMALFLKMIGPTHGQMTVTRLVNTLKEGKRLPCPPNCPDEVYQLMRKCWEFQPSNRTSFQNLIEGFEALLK
Sequence of TYK2 (P29597 whole entry): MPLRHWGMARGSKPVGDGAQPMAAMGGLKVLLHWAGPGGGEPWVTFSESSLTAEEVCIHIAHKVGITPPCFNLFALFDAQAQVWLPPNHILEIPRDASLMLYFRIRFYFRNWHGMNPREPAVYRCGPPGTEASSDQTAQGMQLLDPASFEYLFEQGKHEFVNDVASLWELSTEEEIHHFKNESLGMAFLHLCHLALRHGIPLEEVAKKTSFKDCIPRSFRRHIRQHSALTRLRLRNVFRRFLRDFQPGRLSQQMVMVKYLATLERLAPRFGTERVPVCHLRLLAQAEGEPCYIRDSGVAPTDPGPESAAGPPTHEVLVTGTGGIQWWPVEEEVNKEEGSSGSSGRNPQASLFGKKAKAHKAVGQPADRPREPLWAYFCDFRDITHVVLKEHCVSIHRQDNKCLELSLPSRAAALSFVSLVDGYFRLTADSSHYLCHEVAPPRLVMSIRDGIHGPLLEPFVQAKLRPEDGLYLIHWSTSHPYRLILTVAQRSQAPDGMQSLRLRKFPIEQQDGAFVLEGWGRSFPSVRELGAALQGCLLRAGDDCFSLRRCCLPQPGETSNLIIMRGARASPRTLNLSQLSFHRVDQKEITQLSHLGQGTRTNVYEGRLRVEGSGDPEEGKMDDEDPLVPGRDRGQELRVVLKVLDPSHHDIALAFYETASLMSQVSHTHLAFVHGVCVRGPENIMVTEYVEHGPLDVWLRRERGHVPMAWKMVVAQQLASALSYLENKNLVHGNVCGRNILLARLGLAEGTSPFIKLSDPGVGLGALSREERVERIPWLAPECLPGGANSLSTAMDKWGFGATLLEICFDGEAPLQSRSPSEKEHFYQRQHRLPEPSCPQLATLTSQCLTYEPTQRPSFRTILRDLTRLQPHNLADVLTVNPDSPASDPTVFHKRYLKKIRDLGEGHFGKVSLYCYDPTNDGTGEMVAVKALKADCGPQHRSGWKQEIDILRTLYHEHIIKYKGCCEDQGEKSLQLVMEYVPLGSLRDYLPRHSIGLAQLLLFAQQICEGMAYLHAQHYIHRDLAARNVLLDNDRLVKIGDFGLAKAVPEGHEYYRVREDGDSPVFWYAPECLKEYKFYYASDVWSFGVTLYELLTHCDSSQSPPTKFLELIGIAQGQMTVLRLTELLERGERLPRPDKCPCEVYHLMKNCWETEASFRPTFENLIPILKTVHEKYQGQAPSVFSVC
T2 sequence (O60674 828-1132): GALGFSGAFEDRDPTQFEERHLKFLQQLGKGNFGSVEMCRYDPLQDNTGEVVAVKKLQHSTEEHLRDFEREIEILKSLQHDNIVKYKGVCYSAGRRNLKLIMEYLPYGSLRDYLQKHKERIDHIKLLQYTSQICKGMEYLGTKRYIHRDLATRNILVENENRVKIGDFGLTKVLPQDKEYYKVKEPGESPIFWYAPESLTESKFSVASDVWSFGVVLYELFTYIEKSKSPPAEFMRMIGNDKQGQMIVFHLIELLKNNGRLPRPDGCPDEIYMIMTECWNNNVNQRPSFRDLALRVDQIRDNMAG
T1 sequence (P52333 781-1124): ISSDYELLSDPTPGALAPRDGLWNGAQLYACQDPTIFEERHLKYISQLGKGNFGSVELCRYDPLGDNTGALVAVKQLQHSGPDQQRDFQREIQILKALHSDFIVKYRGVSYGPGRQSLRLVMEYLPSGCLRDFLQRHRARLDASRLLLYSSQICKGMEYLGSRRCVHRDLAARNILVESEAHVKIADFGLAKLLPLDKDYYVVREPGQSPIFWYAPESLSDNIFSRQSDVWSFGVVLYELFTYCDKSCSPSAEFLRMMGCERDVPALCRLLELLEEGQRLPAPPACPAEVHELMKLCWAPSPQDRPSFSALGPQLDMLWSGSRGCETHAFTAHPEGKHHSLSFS

SMILES | IC50 ([1]; Table B1) | IC50 (TYK2; Table B1) | IC50 ([2]; Table B1) | IC50 ([3]; Table B1) | IC50 [1, 6] | IC50 (TYK2) | IC50 [2, 7] | IC50 [3, 8] | ALK % of inhibition at a concentration of 500 nM or 1 mM [4, 9] | other results
CCCS(=O)(=O)Nc1ccc2cc1CCc1cccc(c1)Nc1ncc(Cl)c(n1)N2 [Example B142, N-[6-Chloro-2,4,8,22-tetraazatetracyclo[14.3.1.1(3,7).1(9,13)]docosa-1(20), 3(22),4,6,9(21),10,12,16,18-nonaen-12-yl]propane-1-sulfonamide trifluoroacetate] | 4.6 nM | 1.5 nM | 0.31 nM | 0.85 nM | – | – | – | – | – | IC50 [4, 5]: 990 nM
O=C(CC1CCN(c2ccnc(F)c2)CC1)Nc1ccc2cc1CCc1cncc(c1)Nc1ncc(Cl)c(n1)N2 [Example A244, N-[6-Chloro-2,4,8,18,22-pentaazatetracyclo[14.3.1.1(3,7).1(9,13)]docosa-1(20),3(22),4,6,9(21),10,12,16,18-nonaen-12-yl]-2-[1-(2-fluoropyridin-4-yl)piperidin-4-yl]acetamide tris(trifluoroacetate)] | – | – | – | – | > 400 nM | 170 nM | 171 nM | 30 nM | 66% | –
NC(=O)COc1cc2cc(c1)Nc1nc(ncc1Cl)Nc1cccc(c1)CC2 [Example A23, 2-{[6-Chloro-2,4,8,22-tetraazatetracyclo[14.3.1.1(3,7).1(9,13)]docosa-1(20),3(22),4,6,9(21),10,12,16,18-nonaen-11-yl]oxy}acetyl)acetamide trifluoroacetate] | – | – | – | – | 22 nM | 37 nM | 1 nM | 12 nM | 33% | –
CN(C)C(=O)Nc1ccc2cc1CCc1cccc(c1)Nc1ncc(Cl)c(n1)N2 [Example B239, N′-[6-Chloro-2,4,8,22-tetraazatetracyclo[14.3.1.1(3,7).1(9,13)]docosa-1(20),3(22),4,6,9(21),10,12,16,18-nonaen-12-yl]-N,N-dimethylurea trifluoroacetate] | 35 nM | 24 nM | 8.9 nM | 6.4 nM | – | – | – | – | – | ALK % of inhibition at a concentration of 500 nM or 1 mM [4, 10]: 21%
COc1ccccc1NC(=O)Nc1ccc2cc1CCc1cccc(c1)Nc1ncc(Cl)c(n1)N2 [Example B102, N-[6-Chloro-2,4,8,22-tetraazatetracyclo[14.3.1.1(3,7).1(9,13)]docosa-1(20), 3(22),4,6,9(21),10,12,16,18-nonaen-12-yl]-N′-(2-methoxyphenyl)urea trifluoroacetate] | 33 nM | 8.9 nM | 3.8 nM | 2 nM | – | – | – | – | – | ALK % of inhibition at a concentration of 500 nM or 1 mM [4, 10]: 54%
O=C(NCc1ccccc1)c1cc2cc(c1)OCCSc1cccc(c1)Nc1nc(ncc1Cl)N2 [Example D51, N-Benzyl-6-chloro-17-oxa-14-thia-2,4,8,24-tetraazatetracyclo[16.3.1.1(3,7).1(9,13)]tetracosa-1(22),3(24),4,6,9(23),10,12,18,20-nonaene-20-carboxamide trifluoroacetate] | – | – | – | – | – | – | – | – | – | IC50 ([1]; Table D1): 14 nM; IC50 (TYK2; Table D1): 4.5 nM; IC50 ([2]; Table D1): 1.2 nM; IC50 ([3]; Table D1): 1.8 nM; IC50 ([4]; Table D1, 90 μM ATP): 910 nM
O=C(NCCNS(=O)(=O)c1ccc(Cl)s1)Nc1ccc2cc1CCc1cccc(c1)Nc1ncc(Cl)c(n1)N2 [Example B330, 5-Chloro-N-{2-[({[6-chloro-2,4,8,22-tetraazatetracyclo[14.3.1.1(3,7).1(9,13)]docosa-1(20),3(22),4,6,9(21),10,12,16,18-nonaen-12-yl]amino}carbonyl)amino]ethyl}thiophene-2-sulfonamide trifluoroacetate] | 7.1 nM | 16 nM | 6.1 nM | 4 nM | – | – | – | – | – | ALK % of inhibition at a concentration of 500 nM or 1 mM [4, 11]: 21%
O=C(Nc1cc2cc(c1)Nc1nc(ncc1Cl)Nc1cccc(c1)CC2)c1nccs1 [Example B209, N-[6-Chloro-2,4,8,22-tetraazatetracyclo[14.3.1.1(3,7).1(9,13)]docosa-1(20),3(22),4,6,9(21),10,12,16,18-nonaen-11-yl]-1,3-thiazole-2-carboxamide trifluoroacetate] | 140 nM | 110 nM | 51 nM | 64 nM | – | – | – | – | – | IC50 [4, 5]: > 1000 nM
O=C(Nc1ccc(Cl)cc1)c1cc2cc(c1)Nc1nc(ncc1Cl)Nc1cccc(c1)CC2 [Example B15, 6-Chloro-N-(4-chlorophenyl)-2,4,8,22-tetraazatetracyclo[14.3.1.1(3,7).1(9,13)]docosa-1(20),3(22),4,6,9(21),10,12,16,18-nonaene-11-carboxamide trifluoroacetate] | 365 nM | > 1000 nM | 111 nM | 160 nM | – | – | – | – | – | IC50 [4, 5]: > 1000 nM
O=S1(=O)Cc2cccc(c2)Nc2nc(ncc2Cl)Nc2cccc1c2 [Example D4, 6-Chloro-15-thia-2,4,8,22-tetraazatetracyclo[14.3.1.1(3,7).1(9,13)]docosa-1(20),3(22),4,6,9(21),10,12,16,18-nonaene 15,15-dioxide trifluoroacetate] | – | – | – | – | – | – | – | – | – | IC50 ([1]; Table D1): 25 nM; IC50 (TYK2; Table D1): 50 nM; IC50 ([2]; Table D1): 16 nM; IC50 ([3]; Table D1): 91 nM; IC50 ([4]; Table D1, 90 μM ATP): 774 nM
Cn1cc(C(=O)N2CC[C@H](NC(=O)Nc3ccc4cc3CCc3cncc(c3)Nc3ncc(Cl)c(n3)N4)C2)cn1 [Example B269, N-[6-Chloro-2,4,8,18,22-pentaazatetracyclo[14.3.1.1(3,7).1(9,13)]docosa-1(20),3(22),4,6,9(21),10,12,16,18-nonaen-12-yl]-N′-{(3S)-1-[(1-methyl-1H-pyrazol-4-yl)carbonyl]pyrrolidin-3-yl}urea bis(trifluoroacetate)] | > 10000 nM | 727 nM | 409 nM | 13 nM | – | – | – | – | – | ALK % of inhibition at a concentration of 500 nM or 1 mM [4, 10]: 10%
CC(C)NC(=O)N1CCC(CC(=O)Nc2ccc3cc2CCc2cncc(c2)Nc2ncc(Cl)c(n2)N3)CC1 [Example A99, 4-(2-{[6-Chloro-2,4,8,18,22-pentaazatetracyclo[14.3.1.1(3,7).1(9,13)]docosa-1(20),3(22),4,6,9(21),10,12,16,18-nonaen-12-yl]amino}-2-oxoethyl)-N-isopropylpiperidine-1-carboxamide bis(trifluoroacetate)] | – | – | – | – | 133 nM | 24 nM | 24 nM | 15 nM | 25% | –
CCC(=O)N1CCC(CC(=O)Nc2ccc3cc2CCc2cccc(c2)Nc2ncc(Cl)c(n2)N3)CC1 [Example A90, N-[6-Chloro-2,4,8,22-tetraazatetracyclo[14.3.1.1(3,7).1(9,13)]docosa-1(20), 3(22),4,6,9(21),10,12,16,18-nonaen-12-yl]-2-(1-propionylpiperidin-4-yl)acetamide trifluoroacetate] | – | – | – | – | 68 nM | 4.9 nM | 5.4 nM | 4.9 nM | 30% | –
Cc1occc1NC(=O)N1CCC(CN(C)Cc2ccc3cc2CCc2cncc(c2)Nc2ncc(Cl)c(n2)N3)CC1 [Example B349, 4-{[{[6-Chloro-2,4,8,18,22-pentaazatetracyclo[14.3.1.1(3,7).1(9,13)]docosa-1(20),3(22),4,6,9(21),10,12,16,18-nonaen-12-yl]methyl}(methyl)amino]methyl}-N-(2-methyl-3-furyl)piperidine-1-carboxamide tris(trifluoroacetate)] | 371 nM | 300 nM | 150 nM | 11 nM | – | – | – | – | – | ALK % of inhibition at a concentration of 500 nM or 1 mM [4, 11]: 61%
O=C(CC1CCN(S(=O)(=O)c2ccccc2OC(F)(F)F)CC1)Nc1ccc2cc1CCc1cncc(c1)Nc1ncc(Cl)c(n1)N2 [Example A227, N-[6-Chloro-2,4,8,18,22-pentaazatetracyclo[14.3.1.1(3,7).1(9,13)]docosa-1(20),3(22),4,6,9(21),10,12,16,18-nonaen-12-yl]-2-(1-{[2-(trifluoromethoxy)phenyl]sulfonyl}piperidin-4-yl)acetamide bis(trifluoroacetate)] | – | – | – | – | > 400 nM | > 400 nM | > 400 nM | 10 nM | 22% | –
O=C(Nc1ccc2cc1CCc1cncc(c1)Nc1ncc(Cl)c(n1)N2)N1CCC(c2ccccc2)C1 (centres unmarked) [Example B312, N-[6-Chloro-2,4,8,18,22-pentaazatetracyclo[14.3.1.1(3,7).1(9,13)]docosa-1(20),3(22),4,6,9(21),10,12,16,18-nonaen-12-yl]-3-phenylpyrrolidine-1-carboxamide bis(trifluoroacetate)] | > 400 nM | 42 nM | 70 nM | 5 nM | – | – | – | – | – | ALK % of inhibition at a concentration of 500 nM or 1 mM [4, 11]: 40%
